One series has as its target PI3Kα E545K (Homo sapiens, UniProt P42336, E545K). In words: PI3Kα E545K mutant in vitro cell based assay, MDA-MB-361 cells. The settings on record: MDA-MB-361 cell line, 0% FBS, no insulin, 3 hours treatment. Also on record: MDA-MB-361 (ATCC-HTB-27) cell line (PI3Kα E545K); host or cells: MDA-MB-361. The gist of the method: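 Compound exposure lasted 3 hours, in duplicate 10-point 1:3 dilutions at 0.3% DMSO final, on overnight-attached MDA-MB-361 cells carrying PI3Kα E545K in insulin-free, 0% FBS MEM. Lysates read by SureFire AlphaLISA. Relative IC50 from 4-parameter logistic fit versus DMSO and 1 μM GDC-0032 controls.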

Another series has as its target T1, PI3Kα H1047R (Homo sapiens, UniProt P42336, H1047R).
T1 construct: The MDA-MB-453 (ATCC-HTB-131) cell line (PI3Kα H1047R); host or cells: MDA-MB-453
In words: PI3Kα H1047R mutant in vitro cell based assay, MDA-MB-453 cells (AlphaLisa SureFire). The conditions noted are these: MDA-MB-453 cell line, 0% FBS, 3 hours treatment. The source says: PI3K-Alpha Kinase (PI3Kα) Activity: Wild-Type PI3Kα, H1047R Mutant PI3Kα, and E545K Mutant PI3Kα In Vitro Cell Based Assays and Determination of IC50 Values for Inhibitors
The MDA-MB-453 (ATCC-HTB-131) cell line (PI3Kα H1047R) and MCF-7 (ATCC-HTB-22) cell line (PI3Kα E545K), MDA-MB-361 (ATCC-HTB-27) cell line (PI3Kα E545K), and SKBR3 (ATCC-HTB-30) cell line (wild type PI3Kα) were obtained from the American Type Culture Collection (Manassas, VA). MDA-MB-453 cells were maintained in Dulbecco's Modified Eagle Media (DMEM, Gibco 12430) supplemented with 10% Fetal Bovine Serum, heat inactivated (FBS HI, Gibco 10082), 1× non-essential amino acids (NEAA, Gibco 11140), 1 mM sodium pyruvate (Gibco 11360) and 1× Anti-Anti (Gibco 15240). MCF-7 cells were maintained in Minimum Essential Media (MEM) (Gibco 11095) supplemented with 10% Fetal Bovine Serum, heat inactivated (FBS HI, Gibco 10082), 1× non-essential amino acids (NEAA, Gibco 11140), 1 mM sodium pyruvate (Gibco 11360), 1× Anti-Anti (Gibco 15240) and 10 μg/mL human insulin (Sigma I 9278). MDA-MB-361 cells were maintained in Dulbecco's Modified Eagle Media (DMEM, Gibco 12430) supplemented with 20% Fetal Bovine Serum, heat inactivated (FBS HI, Gibco 10082), 1× non-essential amino acids (NEAA, Gibco 11140), 1 mM sodium pyruvate (Gibco 11360) and 1× Anti-Anti (Gibco 15240). SKBR3 cells were maintained in McCoy's 5A (Gibco 16600) supplemented with 10% Fetal Bovine Serum, heat inactivated (FBS HI, Gibco 10082), and 1× Anti-Anti (Gibco 15240). Cultures were maintained in a humidified incubator at 37° C. under 5% CO2/95% air.
For compound testing in 0% FBS, MDA-MB-453, MCF-7 and SKBR3 cells were seeded at a density of 1.5×10^4, 1.0×10^4, and 1.0×10^4 cells, respectively, per well in white 384-well plates in 20 μl of Minimum Essential Media (MEM) assay media with 1×NEAA, 1 mM sodium pyruvate, and 1 μg/mL human insulin (Sigma 19278) (Assay Medium); while MDA-MB-361 cells were seeded at a density of 1.5×10^4 per well in white 384-well plates in 20 μl Assay Medium without insulin. After plating, cells were allowed to attach overnight. Compounds dissolved in 10 mM stock solutions in DMSO were serially diluted 1:3 in DMSO to generate a 10-point dilution series and plated using an acoustic liquid handler system (Echo 550 Series Liquid Handler, Labcyte). A 5× intermediate compound dilution plate in MEM with 1×NEAA and 1 mM sodium pyruvate (150 μM starting compound concentration in 1.5% DMSO) was then prepared. Five μl of the intermediate serially diluted compounds were added to the cell plate to final concentrations ranging from […] in 0.3% DMSO. 0.3% DMSO alone was used to establish the maximum (MAX) signal and GDC-0032 at a final concentration of 1 μM was used as a reference compound for the minimum (MIN) signal. After 3 hours treatment, the medium was removed, and the cells were lysed in 10 μL of 1× SureFire Lysis buffer with shaking for 10 minutes at room temperature. The Acceptor Mix (Reaction Buffer 1+Reaction Buffer 2+Activation Buffer+SureFire Ultra Acceptor Beads) was prepared by diluting Activation buffer 25-fold in combined Reaction Buffer 1 and Reaction Buffer 2.
The Acceptor beads were diluted 50-fold in the combined Reaction Buffers. Five μL of Acceptor Mix was added to each well, the plate was sealed and covered with foil and incubated for 1 hour at room temperature. The Donor Mix (dilution buffer+SureFire Ultra Donor Beads) was prepared by diluting Donor Beads 50-fold in dilution buffer. Five μL of the Donor Mix was added to each well and the plate sealed and covered with foil and incubated for 1-2 hours at room temperature in the dark. The plates were read on a Neo2 plate reader instrument from Biotek using standard AlphaLisa settings.
Compounds were tested in duplicate and the % inhibition at each compound concentration was used to generate two dose response curves. One IC50 was generated using average % inhibition at each compound concentration. […]
A general note: Alpha assays give light when donor and acceptor beads are brought close together.

The nature of series [1]: Metabolic stability and intrinsic clearance in human liver microsomes (MICS). Type of series: in vitro ADME. The conditions noted are these: human, microsomes, pH 7.4. A digest of the protocol: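 Parent depletion by LC-MS/MS, run in duplicate, gave in vitro t1/2 from the slope of ln(% remaining) versus time, converted to CLint (μL/min/mg protein). Incubations: 1 μM compound, microsomes at 0.5 mg/mL, pH 7.4 phosphate, 37° C, ±1 mM NADPH, timepoints 0.5, 5, 15, 30, 60 min.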
(In general: Microsomes from liver hold many membrane-bound enzymes, among them those of drug oxidation.)

Structures are written as SMILES. A value given as a limit tells only on which side of the number the result lay.

Our source for the IC50 and microsomal CLint values is US20240182460A1, “ALLOSTERIC CHROMENONE INHIBITORS OF PHOSPHOINOSITIDE 3-KINASE (PI3K) FOR THE TREATMENT OF DISEASE” (PETRA PHARMA CORPORATION, priority 2022, published 2024).

PI3Kα E545K, sequence (P42336 whole entry E545K): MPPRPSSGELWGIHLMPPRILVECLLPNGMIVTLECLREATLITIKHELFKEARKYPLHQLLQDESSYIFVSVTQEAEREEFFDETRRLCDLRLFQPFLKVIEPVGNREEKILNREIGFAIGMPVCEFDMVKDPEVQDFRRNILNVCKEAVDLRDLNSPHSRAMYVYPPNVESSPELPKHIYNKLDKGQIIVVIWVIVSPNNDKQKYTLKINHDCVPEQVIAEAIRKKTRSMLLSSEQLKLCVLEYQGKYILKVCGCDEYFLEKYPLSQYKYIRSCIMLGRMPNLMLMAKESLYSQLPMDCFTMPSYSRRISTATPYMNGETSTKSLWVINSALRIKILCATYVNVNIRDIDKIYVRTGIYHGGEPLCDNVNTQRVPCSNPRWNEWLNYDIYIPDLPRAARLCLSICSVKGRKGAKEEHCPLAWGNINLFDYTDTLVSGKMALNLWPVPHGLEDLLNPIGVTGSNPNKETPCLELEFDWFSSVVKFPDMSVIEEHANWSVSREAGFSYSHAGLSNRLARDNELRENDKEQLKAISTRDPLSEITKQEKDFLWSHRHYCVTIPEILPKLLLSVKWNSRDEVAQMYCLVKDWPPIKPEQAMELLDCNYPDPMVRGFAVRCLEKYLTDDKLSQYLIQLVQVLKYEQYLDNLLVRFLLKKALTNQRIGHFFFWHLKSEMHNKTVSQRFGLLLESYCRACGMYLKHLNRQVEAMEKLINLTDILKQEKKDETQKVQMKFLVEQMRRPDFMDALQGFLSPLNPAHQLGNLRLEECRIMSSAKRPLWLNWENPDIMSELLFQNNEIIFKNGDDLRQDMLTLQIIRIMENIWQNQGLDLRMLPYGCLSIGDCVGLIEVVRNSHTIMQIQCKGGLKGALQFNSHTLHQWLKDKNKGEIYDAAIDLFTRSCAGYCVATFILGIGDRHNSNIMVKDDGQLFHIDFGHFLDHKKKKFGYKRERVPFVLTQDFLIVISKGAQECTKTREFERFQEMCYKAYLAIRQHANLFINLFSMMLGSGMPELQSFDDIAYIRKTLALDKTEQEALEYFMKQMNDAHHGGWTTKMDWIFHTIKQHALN
PI3Kα E545K, sequence (P27986 whole entry partner): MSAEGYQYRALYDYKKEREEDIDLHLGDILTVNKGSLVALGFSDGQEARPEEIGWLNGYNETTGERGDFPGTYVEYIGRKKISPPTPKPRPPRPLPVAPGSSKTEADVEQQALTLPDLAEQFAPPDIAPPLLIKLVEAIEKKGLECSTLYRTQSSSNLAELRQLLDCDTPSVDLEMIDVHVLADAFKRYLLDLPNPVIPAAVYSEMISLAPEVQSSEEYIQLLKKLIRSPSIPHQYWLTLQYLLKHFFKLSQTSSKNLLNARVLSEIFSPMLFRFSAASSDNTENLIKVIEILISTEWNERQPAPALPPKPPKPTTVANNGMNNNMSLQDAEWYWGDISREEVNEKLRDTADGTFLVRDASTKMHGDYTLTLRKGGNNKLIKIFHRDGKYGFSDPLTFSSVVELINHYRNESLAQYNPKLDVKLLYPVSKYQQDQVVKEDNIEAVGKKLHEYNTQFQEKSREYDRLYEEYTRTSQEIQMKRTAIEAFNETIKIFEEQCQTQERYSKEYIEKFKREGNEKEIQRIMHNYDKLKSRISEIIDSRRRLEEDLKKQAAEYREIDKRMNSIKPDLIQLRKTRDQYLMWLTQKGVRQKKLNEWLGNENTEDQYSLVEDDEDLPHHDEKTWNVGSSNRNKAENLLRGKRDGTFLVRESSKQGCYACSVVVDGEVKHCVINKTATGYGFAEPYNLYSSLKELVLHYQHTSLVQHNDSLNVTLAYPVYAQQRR
T1 sequence (P42336 whole entry H1047R): as the sequence (P42336 whole entry E545K) above, with K545E, H1047R counted along it
T1 sequence (P27986 whole entry partner): as the sequence (P27986 whole entry partner) above

Usually IC50 stands for the midpoint of a concentration-inhibition curve. Low values mean higher potency, high ones lower potency. Regarding `Cc1cc([C@@H](C)Oc2ccc(Cl)nc2C(N)=O)c2oc(-c3cnn4c3OCC4)c(C)c(=O)c2c1` [Example 36C, 6-Chloro-3-[(1R)-1-[2-(2,3-dihydropyrazolo[5,1-b]oxazol-7-yl)-3,6-dimethyl-4-oxo-chromen-8-yl]ethoxy]pyridine-2-carboxamide], the IC50 against PI3Kα E545K was below 500 nM; on PI3Kα H1047R, below 100 nM.

For `CONC(=O)c1c(O[C@H](C)c2cc(C)cc3c(=O)c(C)c(-c4ccc5nn(C)cc5c4)oc23)ccc(F)c1F` [Example 37A, 6-[(1R)-1-[3,6-Dimethyl-2-(2-methylindazol-5-yl)-4-oxo-chromen-8-yl]ethoxy]-2,3-difluoro-N-methoxy-benzamide], the IC50 against PI3Kα E545K is below 500 nM; against PI3Kα H1047R it was below 100 nM.

Consider `Cc1cc([C@@H](C)Oc2ccc(Cl)nc2C(N)=O)c2oc(-c3cc(F)c4nc(C)cn4c3)c(C)c(=O)c2c1` [Example 38C], for which the results for the IC50 on PI3Kα E545K and at PI3Kα H1047R were below 500 nM and below 100 nM, respectively.

One may read the microsomal CLint as a measure of how fast metabolising enzymes remove a compound, apart from limits set by blood flow. High values mean faster metabolism, low ones greater metabolic stability. Regarding `Cc1cc([C@@H](C)Oc2ccc(Cl)nc2-c2noc(=O)[nH]2)c2oc(-c3cnc4c(c3)OCO4)c(C)c(=O)c2c1` [Example 39A, 3-[6-Chloro-3-[(1R)-1-[2-([1,3]dioxolo[4,5-b]pyridin-6-yl)-3,6-dimethyl-4-oxo-chromen-8-yl]ethoxy]-2-pyridyl]-4H-1,2,4-oxadiazol-5-one], the IC50 against PI3Kα H1047R is below 100 nM. In series [1], this compound gave a microsomal CLint at 1 μM below 50 µL/min/mg.

For the compound `Cc1cc([C@@H](C)Oc2ccc(Cl)nc2C(N)=O)c2oc(-c3ccc4c(cnn4C)c3)c(C)c(=O)c2c1` [Example 40C, 6-Chloro-3-[(1R)-1-[3,6-dimethyl-2-(1-methylindazol-5-yl)-4-oxo-chromen-8-yl]ethoxy]pyridine-2-carboxamide], the IC50 against PI3Kα E545K was below 500 nM; against PI3Kα H1047R, below 100 nM.

Take `Cc1cc([C@@H](C)Oc2ccc(Cl)nc2-c2noc(=O)[nH]2)c2oc(-c3ccc4c(c3)OCCN4C)c(C)c(=O)c2c1` [Example 48A, 3-[6-Chloro-3-[(1R)-1-[3,6-dimethyl-2-(4-methyl-2,3-dihydro-1,4-benzoxazin-7-yl)-4-oxo-chromen-8-yl]ethoxy]-2-pyridyl]-4H-1,2,4-oxadiazol-5-one]: the IC50 against PI3Kα E545K was below 500 nM; at PI3Kα H1047R it was below 100 nM.

Take `Cc1cc([C@@H](C)Oc2ccc(Cl)nc2C(N)=O)c2oc(-c3ccc4nc(C)oc4c3)c(C)c(=O)c2c1` [Example 53C, 6-Chloro-3-[(1R)-1-[3,6-dimethyl-2-(2-methyl-1,3-benzoxazol-6-yl)-4-oxo-chromen-8-yl]ethoxy]pyridine-2-carboxamide]: the IC50 against PI3Kα E545K was below 500 nM; at PI3Kα H1047R, below 100 nM.

Take `Cc1cc([C@@H](C)Oc2ccc(Cl)nc2C(N)=O)c2oc(-c3ccc4nc(C)cn4c3)c(C)c(=O)c2c1` [Example 57A, 6-Chloro-3-[(1R)-1-[3,6-dimethyl-2-(2-methylimidazo[1,2-a]pyridin-6-yl)-4-oxo-chromen-8-yl]ethoxy]pyridine-2-carboxamide]: the IC50 was below 500 nM on PI3Kα E545K and below 100 nM on PI3Kα H1047R.

In the case of `Cc1cc([C@@H](C)Oc2ccc(Cl)nc2S(N)(=O)=O)c2oc(-c3cnn(CCO)c3)c(C)c(=O)c2c1` [Example 61A, 6-Chloro-3-[(1R)-1-[2-[1-(2-hydroxyethyl)pyrazol-4-yl]-3,6-dimethyl-4-oxo-chromen-8-yl]ethoxy]pyridine-2-sulfonamide], the values for the IC50 against PI3Kα E545K and on PI3Kα H1047R were below 500 nM and below 100 nM, respectively.

Take `Cc1cc([C@@H](C)Oc2ccc(Cl)nc2C(N)=O)c2oc(-c3cnc(C)s3)c(C)c(=O)c2c1` [Example 63C, 6-Chloro-3-[(1R)-1-[3,6-dimethyl-2-(2-methylthiazol-5-yl)-4-oxo-chromen-8-yl]ethoxy]pyridine-2-carboxamide]: the IC50 at PI3Kα E545K was below 500 nM; on PI3Kα H1047R it was below 100 nM.

Turning to `Cc1cc([C@@H](C)Oc2ccc(Cl)nc2C(N)=O)c2oc(-c3cnn4c3OCC4(C)C)c(C)c(=O)c2c1` [Example 65C, 6-Chloro-3-[(1R)-1-[2-(3,3-dimethyl-2H-pyrazolo[5,1-b]oxazol-7-yl)-3,6-dimethyl-4-oxo-chromen-8-yl]ethoxy]pyridine-2-carboxamide], the IC50 against PI3Kα E545K was below 500 nM; at PI3Kα H1047R it was below 100 nM.

On to `Cc1cc([C@@H](C)Oc2ccc(Cl)nc2C(N)=O)c2oc(-c3ccc4nn(CF)cc4c3)c(C)c(=O)c2c1` [Example 66C, 6-Chloro-3-[(1R)-1-[2-[2-(fluoromethyl)indazol-5-yl]-3,6-dimethyl-4-oxo-chromen-8-yl]ethoxy]pyridine-2-carboxamide], for which the IC50 was below 500 nM at PI3Kα E545K and below 100 nM against PI3Kα H1047R.

On to `CONC(=O)c1nc(Cl)ccc1O[C@H](C)c1cc(C)cc2c(=O)c(C)c(-c3ccc4nc(C)sc4c3)oc12` [Example 69C, 6-Chloro-3-[(1R)-1-[3,6-dimethyl-2-(2-methyl-1,3-benzothiazol-6-yl)-4-oxo-chromen-8-yl]ethoxy]-N-methoxy-pyridine-2-carboxamide], for which the IC50 is below 500 nM against PI3Kα E545K and below 100 nM against PI3Kα H1047R.

Consider `Cc1cc([C@@H](C)Oc2ccc(Cl)nc2S(N)(=O)=O)c2oc(-c3cnn4c3OCC4)c(C)c(=O)c2c1` [Example 85C, 6-Chloro-3-[(1R)-1-[2-(2,3-dihydropyrazolo[5,1-b]oxazol-7-yl)-3,6-dimethyl-4-oxo-chromen-8-yl]ethoxy]pyridine-2-sulfonamide], for which the values for the IC50 at PI3Kα E545K and against PI3Kα H1047R were below 500 nM and below 100 nM, respectively.

With `Cc1cc([C@@H](C)Oc2ccc(Cl)nc2S(N)(=O)=O)c2oc(-c3cnn(CCS(C)(=O)=O)c3)c(C)c(=O)c2c1` [Example 90C, 6-Chloro-3-[(1R)-1-[3,6-dimethyl-2-[1-(2-methylsulfonylethyl)pyrazol-4-yl]-4-oxo-chromen-8-yl]ethoxy]pyridine-2-sulfonamide], the IC50 is below 500 nM against PI3Kα E545K and below 100 nM against PI3Kα H1047R.

As for `Cc1cc([C@@H](C)Oc2ccc(Cl)nc2C(N)=O)c2oc(-c3cnn4c3CCC4)c(C)c(=O)c2c1` [Example 123A, 6-Chloro-3-[(1R)-1-[2-(5,6-dihydro-4H-pyrrolo[2,1-e]pyrazol-3-yl)-3,6-dimethyl-4-oxo-chromen-8-yl]ethoxy]pyridine-2-carboxamide], the 50% inhibitory concentration (IC50) against PI3Kα E545K is below 500 nM; against PI3Kα H1047R, below 100 nM.
